Target: human D1 receptor (Homo sapiens (Human), UniProt P21728)
Assay: Human D1 Receptor PAM Assay (cAMP HTRF, potentiator mode with EC20 dopamine)
Format: cell-based
Settings: for EC50: HEK293 cells expressing human D1 receptor, 12 nM dopamine (EC20), cAMP, read-out: Abs EC50; for Emax: fitted top of curve, 0% = EC20 dopamine, 100% = 5 μM dopamine, read-out: % Top (% Potentiation)
Excerpt: The PAM activity of the compounds of the present invention may be measured essentially as described in Svensson et al., An Allosteric Potentiator of the Dopamine D1 Receptor Increases Locomotor Activity in Human D1 Knock-in Mices without Casusing Stereotypy or Tachyphylaxis. J. Pharmacol. Exp. Ther. (2017) 360:117-128.
More specifically, HEK293 cells that stably express the human D1 receptor (Accession number NM_000794) are generated by gene transduction using the pBABE-bleo retroviral vector and selected with Zeocin™ (InvivoGen). At approximately 80% confluency, the cells are harvested using TrypLE™ Express (Gibco), suspended in FBS plus 8% DMSO, and stored in liquid nitrogen. On the day of the assay, cells are thawed and resuspended in STIM buffer (Hanks Balanced Salt Solution supplemented with 0.1% BSA, 20 mM HEPES, 500 μM IBMX, and 100 μM ascorbic acid).
Test compound is serially diluted (1:2) with DMSO into assay plates (ProxiPlate-384 Plus, PerkinElmer) using acoustic dispensing (Labcyte) to provide 20 concentrations for full response curves. […] Plates are incubated at room temperature for a total reaction time of 60 min.
cAMP production is quantified using HTRF® detection (Cisbio) according to the manufacturer's instructions. Generally, lysis buffer containing anti-cAMP cryptate (5 μL) and D2-conjugate (from HTRF® kit) (5 μL) is added to the wells, plates are incubated for an additional 60-90 min, and the time-resolved fluorescence is detected using an EnVision™ plate reader (PerkinElmer). Fluorescence data is converted to cAMP concentrations using a cAMP standard curve and analyzing using a 4-parameter non-linear logistic equation (Genedata Screener, version 13.0.5-standard). For potentiator mode concentration-response curves, results are expressed as percent of the window between a response at EC20 concentration of dopamine alone (normalized to 0%) and the maximum response to dopamine (defined by response to 5 μM dopamine, final concentration, normalized as 100%).
Absolute EC50 values are calculated based on the maximum and minimum responses of the control agonist (dopamine). The % Potentiation (% Top) is determined from the fitted top of the concentration response curve.

human D1 receptor, sequence (P21728 whole entry): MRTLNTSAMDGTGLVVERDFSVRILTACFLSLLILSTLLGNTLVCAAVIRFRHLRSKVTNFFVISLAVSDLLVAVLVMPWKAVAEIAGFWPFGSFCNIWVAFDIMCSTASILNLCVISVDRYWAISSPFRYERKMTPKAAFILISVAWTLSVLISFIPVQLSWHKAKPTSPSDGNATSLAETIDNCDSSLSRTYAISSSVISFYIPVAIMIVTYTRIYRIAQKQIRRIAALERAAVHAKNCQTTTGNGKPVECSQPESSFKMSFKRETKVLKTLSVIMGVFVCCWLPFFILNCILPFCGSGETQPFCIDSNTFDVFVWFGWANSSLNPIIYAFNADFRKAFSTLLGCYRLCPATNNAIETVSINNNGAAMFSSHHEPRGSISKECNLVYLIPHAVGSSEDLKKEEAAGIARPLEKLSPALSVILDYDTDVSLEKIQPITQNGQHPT

SMILES | EC50 | Emax
CCn1cc(-c2cccc3c2C[C@H](CO)N(C(=O)Cc2c(Cl)cccc2Cl)[C@H]3C)cn1 [Example 2, 2-(2,6-dichlorophenyl)-1-((1S,3R)-5-(1-ethyl-1H-pyrazol-4-yl)-3-(hydroxymethyl)-1-methyl-3,4-dihydroisoquinolin-2(1H)-yl)ethan-1-one] | 172 nM | 91.2%
C[C@H]1c2cccc(-c3cn[nH]c3)c2C[C@H](CO)N1C(=O)Cc1cccc(F)c1F [Example 14, 2-(2,3-difluorophenyl)-1-((1S,3R)-3-(hydroxymethyl)-1-methyl-5-(1H-pyrazol-4-yl)-3,4-dihydroisoquinolin-2(1H)-yl)ethan-1-one] | 677 nM | 72.6%
C[C@H]1c2cccc(-c3cnn(C4COC4)c3)c2C[C@H](CO)N1C(=O)Cc1c(F)cccc1Cl [Example 6, 2-(2-chloro-6-fluorophenyl)-1-((1S,3R)-3-(hydroxymethyl)-1-methyl-5-(1-(oxetan-3-yl)-1H-pyrazol-4-yl)-3,4-dihydroisoquinolin-2(1H)-yl)ethan-1-one] | 42.2 nM | 80.4%
C[C@H]1c2cccc(-c3cn[nH]c3)c2C[C@H](CO)N1C(=O)Cc1ccc(F)cc1Cl [Example 12, 2-(2-chloro-4-fluorophenyl)-1-((1S,3R)-3-(hydroxymethyl)-1-methyl-5-(1H-pyrazol-4-yl)-3,4-dihydroisoquinolin-2(1H)-yl)ethan-1-one] | 540 nM | 77.1%
C[C@H]1c2cccc(-c3cn[nH]c3)c2C[C@H](CO)N1C(=O)Cc1ccccc1F [Example 13, 2-(2-fluorophenyl)-1-((1S,3R)-3-(hydroxymethyl)-1-methyl-5-(1H-pyrazol-4-yl)-3,4-dihydroisoquinolin-2(1H)-yl)ethan-1-one] | 484 nM | 89.8%
C[C@H]1c2cccc(-c3cn[nH]c3)c2C[C@H](CO)N1C(=O)Cc1c(F)cccc1Cl [Example 9, 2-(2-chloro-6-fluorophenyl)-1-((1S,3R)-3-(hydroxymethyl)-1-methyl-5-(1H-pyrazol-4-yl)-3,4-dihydroisoquinolin-2(1H)-yl)ethan-1-one] | 28 nM | 81.5%
C[C@H]1c2cccc(-c3cn[nH]c3)c2C[C@H](CO)N1C(=O)Cc1cc(F)ccc1Cl [Example 11, 2-(2-chloro-5-fluorophenyl)-1-((1S,3R)-3-(hydroxymethyl)-1-methyl-5-(1H-pyrazol-4-yl)-3,4-dihydroisoquinolin-2(1H)-yl)ethan-1-one] | 112 nM | 79.8%
C[C@H]1c2cccc(-c3cn[nH]c3)c2C[C@H](CO)N1C(=O)Cc1cc(F)ccc1F [Example 15, 2-(2,5-difluorophenyl)-1-((1S,3R)-3-(hydroxymethyl)-1-methyl-5-(1H-pyrazol-4-yl)-3,4-dihydroisoquinolin-2(1H)-yl)ethan-1-one] | 836 nM | 75.5%
C[C@H]1c2cccc(-c3cnn(C)c3)c2C[C@H](CO)N1C(=O)Cc1ccccc1Cl [Example 7, 2-(2-chlorophenyl)-1-((1S,3R)-3-(hydroxymethyl)-1-methyl-5-(1-methyl-1H-pyrazol-4-yl)-3,4-dihydroisoquinolin-2(1H)-yl)ethan-1-one] | 81.2 nM | 82.4%
C[C@H]1c2cccc(-c3cn[nH]c3)c2C[C@H](CO)N1C(=O)Cc1c(F)cccc1F [Example 10, 2-(2,6-difluorophenyl)-1-((1S,3R)-3-(hydroxymethyl)-1-methyl-5-(1H-pyrazol-4-yl)-3,4-dihydroisoquinolin-2(1H)-yl)ethan-1-one] | 127 nM | 78.1%
C[C@H]1c2cccc(-c3cnn(CCO)c3)c2C[C@H](CO)N1C(=O)Cc1ccccc1Cl [Example 5, 1-((1S,3R)-5-(1-(2-(l1-oxidaneyl)ethyl)-1H-pyrazol-4-yl)-3-(hydroxymethyl)-1-methyl-3,4-dihydroisoquinolin-2(1H)-yl)-2-(2-chlorophenyl)ethan-1-one] | 18.3 nM | 79.1%
C[C@H]1c2cccc(-c3cnn(C4CC4)c3)c2C[C@H](CO)N1C(=O)Cc1c(Cl)cccc1Cl [Example 3, 1-((1S,3R)-5-(1-cyclopropyl-1H-pyrazol-4-yl)-3-(hydroxymethyl)-1-methyl-3,4-dihydroisoquinolin-2(1H)-yl)-2-(2,6-dichlorophenyl)ethan-1-one] | 287 nM | 88.1%

— US10611751B2, “Dopamine D1 receptor positive allosteric modulators” (Eli Lilly and Company, priority 2018, dated 2020)
